Calls of active or inactive are those of the source. The rule behind the calls is not given here.
Tests used:
neuronal [1] = test: Inhibition of amyloid beta40 production in rat neuronal cells assessed as inflection point after 3 days by ELISA; assay type: cell-based
[2] = Metabolic stability in rat hepatic microsomes by LC/MS/MS analysis; assay type: ADME, Liver, Microsome; conditions: read-out: CLH
neuronal [3] = test: Inhibition of amyloid beta40 production in rat neuronal cells assessed as maximal inhibition at 3 uM after 3 days by ELISA; assay type: cell-based
[4] = Volume of distribution at steady state in C57BL/6J mouse at 0.1 mg/kg, iv cassette dosing; assay type: ADME, organism-based; parameters: dose 0.1 mg/kg, route intravenous; conditions: in vivo, read-out: Vdss
[5] = target: Amyloid-beta precursor protein (Homo sapiens) (UniProt P05067); test: Inhibition of amyloid beta40 production in human IMR32 cell by ELISA; assay type: functional, cell-based; conditions: IMR-32
Chain of Amyloid-beta precursor protein (Homo sapiens) (P05067 whole entry): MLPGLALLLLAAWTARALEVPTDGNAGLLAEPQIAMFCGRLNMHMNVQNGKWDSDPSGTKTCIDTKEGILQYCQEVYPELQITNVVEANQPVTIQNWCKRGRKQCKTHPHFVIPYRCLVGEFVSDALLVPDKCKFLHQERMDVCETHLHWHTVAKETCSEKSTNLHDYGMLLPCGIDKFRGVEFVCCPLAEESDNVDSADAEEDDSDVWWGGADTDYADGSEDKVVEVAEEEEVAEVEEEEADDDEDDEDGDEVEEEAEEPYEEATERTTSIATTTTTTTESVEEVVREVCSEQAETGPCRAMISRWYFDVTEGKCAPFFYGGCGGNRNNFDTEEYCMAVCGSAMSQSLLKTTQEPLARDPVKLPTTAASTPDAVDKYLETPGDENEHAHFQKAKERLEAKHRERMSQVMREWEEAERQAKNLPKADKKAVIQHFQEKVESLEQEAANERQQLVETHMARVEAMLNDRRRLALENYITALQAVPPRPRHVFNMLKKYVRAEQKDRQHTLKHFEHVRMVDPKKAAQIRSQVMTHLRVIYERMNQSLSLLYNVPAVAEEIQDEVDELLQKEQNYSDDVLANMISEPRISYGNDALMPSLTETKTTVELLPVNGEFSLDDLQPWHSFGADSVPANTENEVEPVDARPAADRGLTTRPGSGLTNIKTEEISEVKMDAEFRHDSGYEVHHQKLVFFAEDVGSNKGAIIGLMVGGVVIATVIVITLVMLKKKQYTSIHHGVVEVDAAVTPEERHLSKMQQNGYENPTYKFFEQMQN

Brain [6] = test: Reduction in soluble amyloid beta40 in C57BL/6J mouse brain at 100 mg/kg, po after 3 hrs by ELISA relative to vehicle treated control; assay type: functional
Plasma [7] = test: Reduction in soluble amyloid beta40 in C57BL/6J mouse plasma at 100 mg/kg, po after 3 hrs by ELISA relative to vehicle treated control; assay type: functional
Mus musculus [8] = test: AUC in C57BL/6J mouse at 1 mg/kg, po cassette dosing; assay type: ADME, organism-based, Plasma; parameters: dose 1 mg/kg, route oral; conditions: in vivo
IMR-32 = test: Inhibition of total amyloid beta production in human IMR32 cell by ELISA; assay type: functional, cell-based
Plasma [9] = test: Reduction in soluble amyloid beta42 in C57BL/6J mouse plasma at 100 mg/kg, po after 3 hrs by ELISA relative to vehicle treated control; assay type: functional
Mus musculus [10] = test: Oral bioavailability in C57BL/6J mouse at 1 mg/kg cassette dosing; assay type: ADME, organism-based; conditions: in vivo
[11] = target: Amyloid-beta precursor protein (Homo sapiens) (UniProt P05067); test: Inhibition of amyloid beta42 production in human IMR32 cell by ELISA; assay type: functional, cell-based; conditions: IMR-32
[12] = Mean residence time in C57BL/6J mouse at 1 mg/kg, po cassette dosing; assay type: ADME, organism-based; parameters: dose 1 mg/kg, route oral; conditions: in vivo
[13] = Cmax in C57BL/6J mouse at 1 mg/kg, po cassette dosing; assay type: ADME, organism-based; parameters: dose 1 mg/kg, route oral; conditions: in vivo
Brain [14] = test: Reduction in soluble amyloid beta42 in C57BL/6J mouse brain at 100 mg/kg, po after 3 hrs by ELISA relative to vehicle treated control; assay type: functional

Compound | microsomal CLint [2] | Activity (neuronal [1]) | inhibition (neuronal [3]) | further results
COc1cc(N2CCN(C(=O)N[C@@H](C)c3cccc4ccccc34)CC2)ccc1-c1cnn(C)c1 | 150 µL/min/mg | 180 nM | 63% | 
COc1cc(N2CCN(C(=O)N[C@@H](C)c3cccc4ccccc34)CC2)ccc1-n1cnc(C)n1 | 110 µL/min/mg | 170 nM | 68% | 
COc1cc(C2CCN(C(=O)N[C@@H](C)c3cccc4ccccc34)CC2)ccc1-c1cnc(C)o1 | 170 µL/min/mg | 260 nM | 61% | 
COc1cc(N2CCN(C(=O)N[C@@H](C)c3cccc4ccccc34)C[C@H]2C)ccc1-c1cnc(C)o1 | 150 µL/min/mg | 56 nM | 65% | 
COc1cc(N2CCN(C(=O)N[C@@H](C)c3cccc4ccccc34)C[C@@H]2C)ccc1-c1cnc(C)o1 | 150 µL/min/mg | 21 nM | 64% | 
COc1cc(N2CCN(C(=O)N[C@@H](C)c3cccc4ccccc34)CC2)ccc1-n1cc(C)nn1 | 230 µL/min/mg | 450 nM | 47% | 
COc1cc(N2CCN(C(=O)Cn3cnc4ccc(C(F)(F)F)cc43)C[C@@H]2C)ccc1-c1cnc(C)o1 | 50 µL/min/mg | 30 nM | 46% | 
COc1cc(N2CCN(C(=O)Cn3cnc4cc(C(F)(F)F)ccc43)C[C@@H]2C)ccc1-c1cnc(C)o1 | 67 µL/min/mg | 21 nM | 60% | Vd [4]: 0.36 L/kg; inhibition [5]: inactive; % of control at 100 mg/kg (Brain [6]): 105%; % of control at 100 mg/kg (Plasma [7]): 106%; AUC (Mus musculus [8]): 3930 ng·h/mL; inhibition (IMR-32): inactive; inhibition in vivo at 100 mg/kg (Plasma [9]): 36%; F (Mus musculus [10]): 46%; inhibition [11]: Dose-dependent effect; MRT [12]: 3.26 h; Cmax [13]: 773 ng/mL; inhibition in vivo at 100 mg/kg (Brain [14]): 41%
COc1cc(N2CCN(C(=O)N[C@@H](C)c3cccc4ccccc34)CC2)ccc1-n1cnc(C)c1 | 150 µL/min/mg | 56 nM | 57% | inhibition in vivo at 100 mg/kg (Plasma [9]): 16%; inhibition in vivo at 100 mg/kg (Brain [14]): 4%

Now from value to compound, other results behind:

microsomal CLint [2] | Compound | Activity (neuronal [1]) | inhibition (neuronal [3]) | further results
7 µL/min/mg | COc1cc(N2CCN(C(=O)Cn3cnc4cccc(C(F)(F)F)c43)CC2)ccc1-c1cnc(C)o1 | 420 nM | 46% | 
140 µL/min/mg | COc1cc(N2CCN(C(=O)Cn3ccc4ccccc43)CC2)ccc1-c1cnc(C)o1 | 180 nM | 50% | 
27 µL/min/mg | COc1cc(N2CCN(C(=O)Cn3nnc4ccccc43)CC2)ccc1-c1cnc(C)o1 | 210 nM | 47% | 
12 µL/min/mg | COc1cc(N2CCN(C(=O)Cn3cnc4c(C(F)(F)F)cccc43)CC2)ccc1-c1cnc(C)o1 | 110 nM | 53% | 
77 µL/min/mg | COc1cc(N2CCN(C(=O)Cn3ncc4ccccc43)CC2)ccc1-c1cnc(C)o1 | 170 nM | 49% | 
160 µL/min/mg | COc1cc(N2CCN(C(=O)NCc3cccc4ccccc34)CC2)ccc1-c1cnc(C)o1 | 50 nM | 59% | 
42 µL/min/mg | COc1cc(N2CCN(C(=O)CN3Cc4ccccc4C3)CC2)ccc1-c1cnc(C)o1 | 620 nM | 48% | 
160 µL/min/mg | COc1cc(N2CCN(C(=O)CN3CCc4ccccc43)CC2)ccc1-c1cnc(C)o1 | 290 nM | 52% | 
23 µL/min/mg | COc1cc(N2CCN(C(=O)Cn3cnc4ccc(C(F)(F)F)cc43)CC2)ccc1-c1cnc(C)o1 | 65 nM | 50% | 
66 µL/min/mg | COc1cc(N2CCN(C(=O)Cn3cnc4cc(C(F)(F)F)ccc43)CC2)ccc1-c1cnc(C)o1 | 50 nM | 61% | 
130 µL/min/mg | COc1cc(N2CCN(C(=O)N[C@@H](C)c3cccc4ccccc34)CC2)ccc1-c1cnc(C)o1 | 34 nM | 67% | 
240 µL/min/mg | COc1cc(N2CCCN(C(=O)N[C@@H](C)c3cccc4ccccc34)CC2)ccc1-c1cnc(C)o1 | 38 nM | 57% | 
22 µL/min/mg | COc1cc(N2CCN(C(=O)Cn3cnc4ccccc43)CC2)ccc1-c1cnc(C)o1 | 93 nM | 71% | 

Source: ChEMBL document CHEMBL3400145, “Design and synthesis of piperazine derivatives as a novel class of γ-secretase modulators that selectively lower Aβ₄₂ production” (Bioorg Med Chem, 2015)
